What follows are molecules tested against T1, CYP11A1 (Homo sapiens, UniProt P05108) (assay: CYP11A1 inhibition: pregnenolone biosynthesis measured by ELISA in NCI-H295R cells). Settings: NCI-H295R cells treated for 24 hours, 10 concentrations in duplicates, read-out: IC50 on CYP11A1 inhibition (Group).
T1 construct: endogenous in cells; host or cells: NCI-H295R
T1 sequence (P05108 40-521): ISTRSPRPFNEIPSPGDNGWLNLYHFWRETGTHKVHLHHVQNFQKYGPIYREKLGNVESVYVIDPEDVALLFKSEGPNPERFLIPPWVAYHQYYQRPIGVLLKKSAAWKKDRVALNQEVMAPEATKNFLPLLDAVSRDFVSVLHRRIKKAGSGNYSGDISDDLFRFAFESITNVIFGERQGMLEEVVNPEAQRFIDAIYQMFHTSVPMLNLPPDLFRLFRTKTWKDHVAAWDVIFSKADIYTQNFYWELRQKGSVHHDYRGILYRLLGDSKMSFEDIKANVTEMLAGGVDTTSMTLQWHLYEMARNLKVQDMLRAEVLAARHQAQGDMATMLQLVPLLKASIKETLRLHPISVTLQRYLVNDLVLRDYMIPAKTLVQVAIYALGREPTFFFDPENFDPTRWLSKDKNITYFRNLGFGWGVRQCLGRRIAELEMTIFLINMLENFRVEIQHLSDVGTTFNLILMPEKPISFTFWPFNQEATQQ
Type: cell-based
Protocol: The ability of the test compounds to inhibit pregnenolone biosynthesis was measured by enzyme-linked immunosorbent assay (ELISA) detecting pregnenolone (Abnova Pregnenolone ELISA Kit, KA1912). […] To determine the half maximal inhibitory concentration (IC50) of the test compounds on CYP11A1 inhibition, the cells were treated for 24 hours with increasing concentrations of the test compound. The final DMSO concentration was 0.4%. Medium samples were diluted 1:6 and pregnenolone amounts determined with ELISA. Manufacturer's recommended protocols were used and pregnenolone (Sigma-Aldrich, P9129) standards were prepared in cell culture medium. Absorbance (A450) was measured with Envision plate reader (PerkinElmer). All the test compounds were studied at 10 concentrations in duplicates.

**Q.** How did the IC50 turn out when `O=C(c1cncc(-c2ccc(F)cc2)c1)N1CCCc2ncccc21` [Compound 42, (3,4-Dihydro-1,5-naphthyridin-1(2H)-yl)(5-(4-fluorophenyl)pyridin-3-yl)-methanone] was run?
**A.** 51 to 200 nM

**Q.** With `Cn1cc(-c2cncc(C(=O)N3CCOc4ccccc43)n2)cn1` [Compound 43, (2,3-Dihydro-4H-benzo[b][1,4]oxazin-4-yl)(6-(1-methyl-1H-pyrazol-4-yl)-pyrazin-2-yl)methanone] as the molecule, how does the IC50 read?
**A.** 51 to 200 nM

**Q.** Which IC50 does the source give for `O=C(c1cncc(-c2ccc(C(F)(F)F)cc2)c1)N1CCOc2ccccc21` [Compound 44, (2,3-Dihydro-4H-benzo[b][1,4]oxazin-4-yl)(5-(4-(trifluoromethyl)phenyl)pyridin-3-yl)methanone] here?
**A.** 51 to 200 nM

**Q.** For `COc1cc(F)ccc1-c1cncc(C(=O)N2CCOc3ccccc32)c1` [Compound 45, (2,3-Dihydro-4H-benzo[b][1,4]oxazin-4-yl)(5-(4-fluoro-2-methoxyphenyl)-pyridin-3-yl)methanone], which IC50 is on record?
**A.** 51 to 200 nM

**Q.** `O=S(=O)(c1cncc(-c2ccc(F)cc2)c1)N1CCOc2ccccc21` [Compound 46, 4-((5-(4-Fluorophenyl)pyridin-3-yl)sulfonyl)-3,4-dihydro-2H-benzo[b][1,4]-oxazine] was tested. Which IC50 did it give?
**A.** 51 to 200 nM

**Q.** Which IC50 does the source give for `O=S(=O)(c1cncc(-c2ccc(F)cc2)c1)N1CCCc2ccccc21` [Compound 47, 1-((5-(4-Fluorophenyl)pyridin-3-yl)sulfonyl)-1,2,3,4-tetrahydroquinoline] here?
**A.** 51 to 200 nM

**Q.** How did the IC50 turn out when `O=C(c1cncc(-c2cccc(C(F)(F)F)c2)c1)N1CCOc2ccccc21` [Compound 48, (2,3-Dihydro-4H-benzo[b][1,4]oxazin-4-yl)(5-(3-(trifluoromethyl)phenyl)pyridin-3-yl)methanone] was run?
**A.** 51 to 200 nM

**Q.** For `O=C(c1cncc(-c2ccc(F)nc2)c1)N1CCOc2ccccc21` [Compound 49, (2,3-Dihydro-4H-benzo[b][1,4]oxazin-4-yl)(6′-fluoro-[3,3′-bipyridin]-5-yl)-methanone], which IC50 is on record?
**A.** 51 to 200 nM

**Q.** For `COc1cccc(-c2cncc(C(=O)N3CCOc4ccccc43)c2)c1` [Compound 50, (2,3-Dihydro-4H-benzo[b][1,4]oxazin-4-yl)(5-(3-methoxyphenyl)pyridin-3-yl)-methanone], which IC50 is on record?
**A.** 51 to 200 nM

**Q.** With `C=C(c1ccccc1)c1cncc(C(=O)N2CCCc3ccccc32)c1` [Compound 51, (3,4-Dihydroquinolin-1(2H)-yl)(5-(1-phenylvinyl)pyridin-3-yl)methanone] as the molecule, how does the IC50 read?
**A.** 51 to 200 nM

**Q.** How did the IC50 turn out when `O=C(c1cnnc(-c2ccccc2)c1)N1CCCc2ccccc21` [Compound 52, (3,4-Dihydroquinolin-1(2H)-yl)(6-phenylpyridazin-4-yl)methanone] was run?
**A.** 51 to 200 nM

**Q.** With `COc1ccc2c(c1)CCCN2C(=O)c1cncc(-c2ccccc2)c1` [Compound 53, (6-Methoxy-3,4-dihydroquinolin-1(2H)-yl)(5-phenylpyridin-3-yl)methanone] as the molecule, how does the IC50 read?
**A.** 51 to 200 nM

**Q.** Which IC50 does the source give for `O=C(c1cncc(-c2ccc(CO)cc2)c1)N1CCCc2ccccc21` [Compound 54, (3,4-Dihydroquinolin-1(2H)-yl)(5-(4-(hydroxymethyl)phenyl)pyridin-3-yl)-methanone] here?
**A.** 51 to 200 nM

**Q.** For `O=C(c1cncc(-c2ccc(F)cc2)c1)N1CCOC2CCCCC21` (centres unmarked) [Compound 55, (5-(4-Fluorophenyl)pyridin-3-yl)(octahydro-4H-benzo[b][1,4]oxazin-4-yl)-methanone], which IC50 is on record?
**A.** 51 to 200 nM

**Q.** With `O=C(c1cncc(-c2ccc(F)cc2)c1)N1CCO[C@H]2CCCC[C@@H]21` [Compound 56, (5-(4-Fluorophenyl)pyridin-3-yl)((4aS,8aS)-octahydro-4H-benzo[b][1,4]oxazin-4-yl)methanone] as the molecule, how does the IC50 read?
**A.** 51 to 200 nM

**Q.** With `O=C(c1cncc(-c2ccc(F)cc2)c1)N1CCO[C@@H]2CCCC[C@H]21` [Compound 57, (5-(4-Fluorophenyl)pyridin-3-yl)((4aR,8aR)-octahydro-4H-benzo[b][1,4]oxazin-4-yl)methanone] as the molecule, how does the IC50 read?
**A.** 201 to 2500 nM

**Q.** `O=C(c1cncc(-c2ccc(F)c([N+](=O)[O-])c2)c1)N1CCOc2ccccc21` [Compound 58, (2,3-Dihydro-4H-benzo[b][1,4]oxazin-4-yl)(5-(4-fluoro-3-nitrophenyl)pyridin-3-yl)methanone] was tested. Which IC50 did it give?
**A.** 201 to 2500 nM

**Q.** With `COc1cccc2c1CCCN2C(=O)c1cncc(-c2ccccc2)c1` [Compound 59, (5-Methoxy-3,4-dihydroquinolin-1(2H)-yl)(5-phenylpyridin-3-yl)methanone] as the molecule, how does the IC50 read?
**A.** 201 to 2500 nM

**Q.** With `O=C(c1cncc(-c2ccc(F)cc2)c1)N1CCc2ccccc21` [Compound 60, (5-(4-Fluorophenyl)pyridin-3-yl)(indolin-1-yl)methanone] as the molecule, how does the IC50 read?
**A.** 201 to 2500 nM

**Q.** Which IC50 does the source give for `O=C(c1cncc(-c2ccccc2)c1)N1CCCc2ncccc21` [Compound 61, (3,4-Dihydro-1,5-naphthyridin-1(2H)-yl)(5-phenylpyridin-3-yl)methanone] here?
**A.** 201 to 2500 nM

**Q.** For `O=C(c1cncc(-c2ccncc2)c1)N1CCCc2ccccc21` [Compound 62, [3,4′-Bipyridin]-5-yl(3,4-dihydroquinolin-1(2H)-yl)methanone], which IC50 is on record?
**A.** 201 to 2500 nM

**Q.** Which IC50 does the source give for `Cn1nccc1-c1cncc(C(=O)N2CCOc3ccccc32)n1` [Compound 63, (2,3-Dihydro-4H-benzo[b][1,4]oxazin-4-yl)(6-(1-methyl-1H-pyrazol-5-yl)-pyrazin-2-yl)methanone] here?
**A.** 201 to 2500 nM

**Q.** `CC1CCc2ccccc2N1C(=O)c1cnnc(-c2ccc(F)cc2)c1` (centres unmarked) [Compound 64, (6-(4-Fluorophenyl)pyridazin-4-yl)(2-methyl-3,4-dihydroquinolin-1(2H)-yl)-methanone] was tested. Which IC50 did it give?
**A.** 201 to 2500 nM

**Q.** With `O=C(c1cncc(-c2ccc(CO)cc2)c1)N1CCOc2ccccc21` [Compound 65, (2,3-Dihydro-4H-benzo[b][1,4]oxazin-4-yl)(5-(4-(hydroxymethyl)phenyl)pyridin-3-yl)methanone] as the molecule, how does the IC50 read?
**A.** 201 to 2500 nM

**Q.** How did the IC50 turn out when `O=C(c1cncc(C2=CCOCC2)c1)N1CCOc2ccccc21` [Compound 66, (5-(3,6-Dihydro-2H-pyran-4-yl)pyridin-3-yl)(2,3-dihydro-4H-benzo[b][1,4]-oxazin-4-yl)methanone] was run?
**A.** 201 to 2500 nM

**Q.** With `COC(=O)c1ccc2c(c1)CCCN2C(=O)c1cncc(-c2ccccc2)c1` [Compound 67, Methyl 1-(5-phenylnicotinoyl)-1,2,3,4-tetrahydroquinoline-6-carboxylate] as the molecule, how does the IC50 read?
**A.** 201 to 2500 nM

**Q.** With `CN(C)Cc1ccc(-c2cncc(C(=O)N3CCCc4ccccc43)c2)cc1` [Compound 68, (3,4-Dihydroquinolin-1(2H)-yl)(5-(4-((dimethylamino)methyl)phenyl)pyridin-3-yl)methanone] as the molecule, how does the IC50 read?
**A.** 201 to 2500 nM

**Q.** `COc1ccc2c(c1)N(C(=O)c1cncc(-c3ccccc3)c1)CCC2` [Compound 69, (7-Methoxy-3,4-dihydroquinolin-1(2H)-yl)(5-phenylpyridin-3-yl)methanone] was tested. Which IC50 did it give?
**A.** 201 to 2500 nM

**Q.** Which IC50 does the source give for `O=C(c1cncc(-c2cccnc2)c1)N1CCCc2ccccc21` [Compound 70, [3,3′-Bipyridin]-5-yl(3,4-dihydroquinolin-1(2H)-yl)methanone] here?
**A.** 201 to 2500 nM

**Q.** With `Cc1ccc(-c2cncc(C(=O)N3CCOc4ccccc43)c2)cc1` [Compound 71, (2,3-Dihydro-4H-benzo[b][1,4]oxazin-4-yl)(5-(p-tolyl)pyridin-3-yl)methanone] as the molecule, how does the IC50 read?
**A.** 201 to 2500 nM

**Q.** How did the IC50 turn out when `O=C(c1cncc(-c2ccc3c(c2)OCC3)c1)N1CCOC2CCCCC21` (centres unmarked) [Compound 72, (5-(2,3-Dihydrobenzofuran-6-yl)pyridin-3-yl)(octahydro-4H-benzo[b][1,4]-oxazin-4-yl)methanone] was run?
**A.** 201 to 2500 nM

**Q.** How did the IC50 turn out when `Cn1cc(-c2cncc(C(=O)N3CCOc4ccccc43)c2)cn1` [Compound 73, (2,3-Dihydro-4H-benzo[b][1,4]oxazin-4-yl)(5-(1-methyl-1H-pyrazol-4-yl)-pyridin-3-yl)methanone] was run?
**A.** 201 to 2500 nM

**Q.** For `O=C(c1cncc(N2CCCC2)c1)N1CCOc2ccccc21` [Compound 74, (2,3-Dihydro-4H-benzo[b][1,4]oxazin-4-yl)(5-(pyrrolidin-1-yl)pyridin-3-yl)-methanone], which IC50 is on record?
**A.** 201 to 2500 nM

**Q.** With `CC1(C)C2CN(c3cncc(C(=O)N4CCOc5ccccc54)c3)CC21` (centres unmarked) [Compound 75] as the molecule, how does the IC50 read?
**A.** 201 to 2500 nM

**Q.** Which IC50 does the source give for `O=C(c1cncc(N2CCCC2)n1)N1CCOc2ccccc21` [Compound 76, (2,3-dihydro-4H-benzo[b][1,4]oxazin-4-yl)(6-(pyrrolidin-1-yl)pyrazin-2-yl)-methanone] here?
**A.** 201 to 2500 nM

**Q.** `O=C(c1cncc(N2CC(F)(F)C2)n1)N1CCOc2ccccc21` [Compound 77, (6-(3,3-Difluoroazetidin-1-yl)pyrazin-2-yl)(2,3-dihydro-4H-benzo[b][1,4]oxazin-4-yl)methanone] was tested. Which IC50 did it give?
**A.** 201 to 2500 nM

**Q.** For `CN1CCN(c2cncc(C(=O)N3CCOc4ccccc43)n2)CC1` [Compound 78, (2,3-Dihydro-4H-benzo[b][1,4]oxazin-4-yl)(6-(4-methylpiperazin-1-yl)pyrazin-2-yl)methanone], which IC50 is on record?
**A.** 201 to 2500 nM

**Q.** How did the IC50 turn out when `O=C(Cc1cncc(-c2ccc(F)cc2)c1)N1CCCc2ccccc21` [Compound 79, 1-(3,4-Dihydroquinolin-1(2H)-yl)-2-(5-(4-fluorophenyl)pyridin-3-yl)ethan-1-one] was run?
**A.** 201 to 2500 nM
